Results on four molecules are retold here after patent US11365201B2, “Chlorotonil derivatives” (HELMHOLTZ-ZENTRUM FÜR INFEKTIONSFORSCHUNG GMBH, priority 2017, dated 2022).

The structures appear in SMILES notation. Values after ≈ are worked out from the molar mass of the structure shown. Where two headings read alike, the source gives them in different places.

The nature of data set [1]: Determination of water solubility, Method 1 (suspension in tap water, weighing). In kind it is physicochemical. Particulars: thermodynamic from solid, room temperature, 18 h stirring, triplicates. The procedure:
(§1) Determination of Water Solubility
10 mg of compound was suspended in 1 L of tap water and the solution was stirred at room temperature for 18 h. Upon completion, solution was sonicated for another hour, centrifuged and the supernatant was separated from the precipitate. Both aliquots were lyophilized, and weighed. This procedure was performed in triplicates.

A short description of data set [2]: Determination of water solubility, Method 2 (HPLC-MS standard curve, saturated solution in water). In kind it is physicochemical. Particulars: thermodynamic from solid; saturated solution in water, HPLC-MS standard curve. The procedure:
as §1
A standard curve with 10 calibration points of the compound of interest is plotted using HPLC-MS and serial dilution. The dilutions and stock solutions were prepared in THF as a solvent. Following the measurements, a saturated solution in water of the compound in study was also measured. Upon plotting the standard curve using the peak areas of the MS peaks, the water samples were plotted along the curve and the solubility was then calculated.

For data set [3], the system named is B. subtilis DSM-10. The data set can be described thus: Antimicrobial assay, MIC by microbroth dilution. Particulars: Bacillus subtilis, DSM10; 16 h, cation-adjusted Muller-Hinton broth. In kind it is cell-based. The procedure: (§2) Bacterial strains used in susceptibility assays (minimum inhibitory concentrations, MIC) were either part of our internal strain collection or were purchased form the German Collection of Microorganisms and Cell Cultures (DSMZ). All compounds were prepared as DMSO stocks and MIC values were determined in standard microbroth dilution assays. Overnight cultures of bacteria were diluted in cation-adjusted Muller-Hinton broth (BBL™, BD) and were adjusted to approximately 10^5 cfu/mL. […] Bacteria were grown in the presence of the derivatives in serial dilution for 16 h at their optimal growth temperature. MIC values were determined according to CLSI guidelines (antibiotic concentration at which no visible bacterial growth is observed).

The test system of data set [4] is C. glutamicum DSM-20300. The data set can be described thus: Antimicrobial assay, MIC by microbroth dilution. In kind it is cell-based. Particulars: Corynebacterium glutamicum, DSM20300; 16 h, cation-adjusted Muller-Hinton broth. The procedure: as §2
Data set [5] deals with S. aureus Newman. The data set can be described thus: Antimicrobial assay, MIC by microbroth dilution. In kind it is cell-based. Particulars: Staphylococcus aureus, NEWMAN; 16 h, cation-adjusted Muller-Hinton broth. The procedure:
as §2
For orientation: Broth dilution looks for growth in wells or tubes with falling amounts of substance.

For data set [6], the system named is E. coli TolC (+PMBN). The data set can be described thus: Antimicrobial assay, MIC by microbroth dilution with PMBN. In kind it is cell-based. As to conditions: 16 h, 3 μg/mL polymyxin B nonapeptide (PMBN) added. The procedure:
Bacterial strains used in susceptibility assays (minimum inhibitory concentrations, MIC) were either part of our internal strain collection or were purchased form the German Collection of Microorganisms and Cell Cultures (DSMZ). All compounds were prepared as DMSO stocks and MIC values were determined in standard microbroth dilution assays. Overnight cultures of bacteria were diluted in cation-adjusted Muller-Hinton broth (BBL™, BD) and were adjusted to approximately 10^5 cfu/mL. For the E. coli culture, 3 μg/mL of polymyxin B nonapeptide (PMBN) was added to increase permeability of the outer membrane as chlorotonils were previously shown to not penetrate into Gram-negative cells. Bacteria were grown in the presence of the derivatives in serial dilution for 16 h at their optimal growth temperature. MIC values were determined according to CLSI guidelines (antibiotic concentration at which no visible bacterial growth is observed).

Data set [7] relates to L-929 (murine fibroblasts). As to the kind of experiment: Cytotoxicity assay (MTT, 5 d). In kind it is cell-based. Particulars: Mus musculus, L929, 120 h. The procedure:
Cytotoxicity Assay The murine fibroblast cell line L-929 was obtained from the German Collection of Microorganisms and Cell Cultures (DSMZ) and maintained under conditions recommended by the depositor. Cells were seeded at 6×10^3 cells per well of sterile 96-well plates in 180 μL complete medium and treated with the compounds in serial dilution after 2 h of equilibration. After 5 d, viability was assessed by the MTT method. After 1.5 h incubation with 0.5 mg/mL MTT reagent, cells were washed with PBS and 100 μL of 2-propanol/10 N HCl (250:1) was added. The absorbance at 570 nm was determined on a microplate reader and cell viability was expressed as percentage relative to the respective solvent control. Half-inhibitory concentrations (IC50) were determined by sigmoidal curve fitting.

Data set [8] concerns P. falciparum 3D7 (sensitive strain). The data set can be described thus: Antiplasmodial in vitro drug sensitivity assay (HRP2-ELISA). In kind it is cell-based. As to conditions: Plasmodium falciparum. The procedure:
(§3) Two laboratory strains of P. falciparum, the chloroquine sensitive 3D7 and the multi-resistant Dd2 were kept in continuous culture as previously described (Trager and Jensen 1976). In brief, parasites were kept in complete culture medium (RPMI 1640, 25 mM HEPES, 2 mM L-glutamine, 50 μg/ml gentamicin and 0.5% w/v AlbuMAX) at 37° C., 5% CO2 and 5% oxygen at 5% hematocrit with daily change of medium. Synchronization was performed with sorbitol twice a week (Lambros and Vanderberg 1979).
(§4) In Vitro Drug Sensitivity Assay
(§5) All compounds were dissolved in DMSO at stock dilutions between 25 and 100 mM; the reference drug chloroquine diphosphate (MW: 515.86) was diluted in distilled water and DMSO, respectively. […] Antiplasmodial activity of the different compounds was tested in a drug sensitivity assay against the two laboratory strains using the histidine-rich protein 2 (HRP2) assay as described previously (Noedl 2005). In brief: 96 well plates were pre-coated with the different compounds in a threefold dilution before ring stage parasites were added in complete culture medium at a hematocrit of 1.5% and a parasitemia of 0.05% in a total volume of 225 μl per well. After three days of incubation plates were frozen until analyzed by HRP2-ELISA. All compounds were evaluated in duplicate in at least two independent experiments.
Background: In an ELISA, binding on a coated surface is turned into a signal by an enzyme label.

Data set [9] deals with P. falciparum Dd2 (resistant strain). The data set is described as above. In kind it is cell-based. As to conditions: Plasmodium falciparum. The procedure:
as §3, §4, §5

The test system of data set [10] is Gram-positive bacteria. The data set can be described thus: Antimicrobial assay, MIC against a range of Gram-positive bacteria (Table 5). In kind it is cell-based. Particulars: read-out: MIC. The procedure:
as §2

Data set [11] deals with zebrafish larvae of the AB wildtype line. The data set can be described thus: Zebrafish embryo toxicity, maximum tolerated concentration (MTC), AB line. In kind it is in vivo. As to conditions: AB line, at five dpf, incubation started at two dpf. The procedure:
(§6) Zebrafish Embryo Toxicity
(§7) The maximum tolerated concentration (MTC) was determined on zebrafish larvae of the AB wildtype line and the TLF wild type line. Larvae were placed into a 96-well plate (one larva per well) and incubated in a solution at different concentrations (100, 50, 25, 10, 1 μM) of ChA, ChA-Epo2, ChB or ChB-Epo at two days post fertilization (dpf) for AB and in a solution at different concentrations of ChA (100, 50 μM) ChA-Epo2 (25, 10, 1 μM), ChB (100, 50 μM) or ChB-Epo (100, 50, 25 μM) at one dpf for TLF. Five zebrafish larvae were used per condition. The incubated embryos were kept in compound solutions at 28° C. until five dpf and monitored daily by microscopy. The final MTC result was recorded at five dpf. Compound solutions were prepared in the larvae medium Danieau's. Additionally a solution of 0.5% DMSO in Danieau's was used as vehicle control and Danieau's alone as a negative control.

In data set [12] the test system is zebrafish larvae of the TLF wild type line. The data set can be described thus: Zebrafish embryo toxicity, maximum tolerated concentration (MTC), TLF line. In kind it is in vivo. As to conditions: at five dpf, incubation started at one dpf. The procedure:
as §6, §7

For data set [13], the system named is Plasmodium falciparum. As to conditions: starting parasitemia levels of 0.01, 0.05, 0.5 and […]; cited from earlier work.
Data set [14] concerns chloroquine-sensitive laboratory strains of Plasmodium falciparum. As to conditions: read-out: mean IC50, chloroquine-sensitive laboratory strains of Plasmodium falciparum; in vitro, first screening; cited from earlier work.
Data set [15] relates to chloroquine-resistant laboratory strains of Plasmodium falciparum. Particulars: read-out: mean IC50, chloroquine-resistant laboratory strains of Plasmodium falciparum; in vitro, first screening; cited from earlier work.
Data set [16] concerns clinical isolates from Gabon. Particulars: read-out: median IC50, clinical isolates from Gabon; in vitro; cited from earlier work.
Data set [17] has as its system Plasmodium falciparum. Particulars: cited from earlier work.
For data set [18], the system named is mature stage (stage IV-V) gametocytes. As to conditions: read-out: mean IC50, gametocytocidal activity, ATP bioluminescence; cited from earlier work.
The conditions of data set [19]: mice; cited from earlier work.
[20] abbreviates: 3D7, read-out: IC50 against P. falciparum 3D7.
Setting [21] is: DD2, read-out: IC50 against P. falciparum Dd2.

The term solubility denotes the dissolved amount per volume that the medium holds. Higher therefore signals much dissolved substance. A word on the MIC: it is the lowest concentration that inhibits growth of the organism. The term IC50 denotes the concentration at which inhibition is half-maximal.

As for `C[C@@H]1C(=O)O[C@@H](C)/C=C/C=C\[C@@H](C)[C@@H]2C=C[C@@H]3C[C@@]4(C)O[C@H]4[C@@H](C)[C@H]3[C@@H]2C(=O)C(Cl)(Cl)C1=O` [ChA-Epo2], the concentration in solution in [1] (solubility at 18 h) was 14 µg/mL (≈ 28.3 µM). The molecule further came in with a solubility in [2] of 10.3 µg/mL (≈ 20.8 µM). Also, the MIC in data set [3] was found to be 0.025 µg/mL (≈ 0.0505 µM); in data set [4], 0.05 µg/mL (≈ 0.101 µM); in data set [5], 0.025 µg/mL (≈ 0.0505 µM); in data set [10] (Enterococcus faecalis, E. faecalis 20478), 0.8 µg/mL (≈ 1.61 µM); in data set [10] (Enterococcus faecalis, E. faecalis 29212), 1.6 µg/mL (≈ 3.23 µM); in data set [10] (Enterococcus faecium, E. faecium 20477), 3.2 µg/mL (≈ 6.46 µM). The MIC in data set [10] (Enterococcus faecium, VRE, E. faecium 17050 (VRE)) was found to be 0.4 µg/mL (≈ 0.807 µM); in data set [10] (Micrococcus luteus, M. luteus) it was 0.025 µg/mL (≈ 0.0505 µM); in data set [10] (Mycolicibacterium smegmatis, M. smegmatis), 0.003 µg/mL (≈ 0.00606 µM); in [10] (Priestia megaterium, B. megaterium), 0.00125 µg/mL (≈ 0.00252 µM); in [10] (Staphylococcus epidermidis, S. epidermidis 28765), 0.2 µg/mL (≈ 0.404 µM); in [10] (Streptococcus pneumoniae, PRSP, S. pneumoniae 11865 (PRSP)), 8 µg/mL (≈ 16.1 µM). The MIC in data set [10] (Streptococcus pneumoniae, S. pneumoniae 20566) is 0.2 µg/mL (≈ 0.404 µM). In data set [6], the “MIC E. coli TolC (+PMBN)” value was found to be 0.1 µg/mL. Further, the IC50 in data set [7] was 2100 nM; in [8] (P. falciparum 3D7 (sensitive strain), read-out: IC50 against P. falciparum 3D7) it was 51.3 nM; in data set [9] (P. falciparum Dd2 (resistant strain), read-out: IC50 against P. falciparum Dd2) it was 87.1 nM. The “Observations noted on fish larvae” value is given as “died” in [11] (10 μM); “died” in data set [11] (25 μM); “died” in [11] (50 μM); “died” in data set [11] (100 μM); 4 delayed in development in [12] (10 μM); 1 died, 4 delayed in in data set [12] (25 μM). For the same molecule, the “MTC (maximum tolerated concentration)” value in data set [11] and in data set [12] was 1 µM each time.
For the molecule `CCN(CC)CCCC(C)Nc1ccnc2cc(Cl)ccc12` (stereo not shown) [Chloroquine, reference compound], the IC50 amounted to 7.4 nM in [8] (setting [20]) and 292 nM in data set [9] (setting [21]). The “Inoculum effect: difference in IC50 between lowest and highest parasitemia” value in data set [13] was 5.6 fold.
`CC1=C[C@@H](C)C2C3C(=O)C(Cl)(Cl)C(=O)[C@H](C)C(=O)O[C@@H](C)/C=C/C=C\[C@@H](C)[C@@H]3C=C[C@@H]2C1` (stereo partly shown) [Chlorotonil A (ChA), Chlorotonil A]: in data set [1], the concentration in solution (solubility at 18 h) came to 3 µg/mL (≈ 6.26 µM). In data set [2], this molecule displayed a solubility of 1.8 µg/mL (≈ 3.75 µM). In addition, the “MIC E. coli TolC (+PMBN)” value in data set [6] was 0.4 µg/mL. Further, the IC50 was 1100 nM in data set [7]; 18.7 nM in data set [8] (setting [20]); 20.7 nM in [9] (setting [21]); 9 nM in data set [14]; 18 nM in [15]; 15.2 nM in data set [16]. Also, in [18], the 50% inhibitory concentration (IC50) was 29.6 nM. Further, the “Development of resistant parasites in vitro by drug pressure” value in data set [17] is reported as “not possible to develop resistant parasites in vitro by drug pressure”. Moreover, in data set [19], the oral availability entry is on record as “orally available”.
As for `C[C@H]1[C@H](OC(=O)CCC(=O)O)O[C@@H]2O[C@@]3(C)CC[C@H]4[C@H](C)CC[C@@H]1[C@@]24OO3` [artesunate], the “Inoculum effect: difference in IC50 between lowest and highest parasitemia” value in data set [13] is listed as 8.8 fold.
